pEC50, pIC50: −log10 of the molar value.
Tests used:
Hepatitis B virus = experiment: Antiviral activity against Hepatitis-B virus 2.2.15(HBV); type: functional, organism-based; conditions: HepG2 2.2.15
[1] = Compound was evaluated for its toxicity by […] assay in PBM; type: functional, Homo sapiens
Human alphaherpesvirus 2 = experiment: Antiviral activity against Herpes simplex virus type-2; type: functional, organism-based
[2] = Antiviral activity against human immunodeficiency virus type-1 (HIV-1) in PBM cells; type: functional, cell-based; conditions: PBMC
Human alphaherpesvirus 1 = experiment: Antiviral activity against Herpes simplex virus type-1; type: functional, organism-based
CCRF-CEM = experiment: Compound was evaluated for its toxicity by […] assay in CEM; type: functional, cell-based; conditions: Homo sapiens
Vero = experiment: Compound was evaluated for its toxicity by […] assay in vero cells; type: functional, cell-based; conditions: Chlorocebus sabaeus

| Compound | pEC50 (Hepatitis B virus) | pIC50 [1] | pEC50 (Human alphaherpesvirus 2) | pEC50 [2] | pEC50 (Human alphaherpesvirus 1) | pIC50 (CCRF-CEM) | pIC50 (Vero) |
| --- | --- | --- | --- | --- | --- | --- | --- |
| Nc1ncnc2c1ncn2[C@@H]1O[C@@H](CO)[C@H](O)C1(F)F | < 4.70 | < 4.00 | < 4.00 | < 4.00 | < 4.00 | < 4.00 | < 4.00 |
| Nc1ncnc2c1ncn2[C@H]1O[C@@H](CO)[C@H](O)C1(F)F | < 4.70 | < 4.00 | < 4.00 | 5.47 | < 4.00 | < 4.00 | < 4.00 |
| Nc1nc(=O)n([C@H]2O[C@@H](CO)[C@H](O)C2(F)F)cc1I | < 5.00 | < 4.00 | < 4.00 | < 4.00 | < 4.00 | < 4.00 | < 4.00 |
| O=c1[nH]c(=O)n([C@H]2O[C@@H](CO)[C@H](O)C2(F)F)cc1F | < 5.00 | < 4.00 | < 4.00 | < 4.00 | < 4.00 | < 4.00 | < 4.00 |
| O=c1[nH]c(=O)n([C@@H]2O[C@@H](CO)[C@H](O)C2(F)F)cc1F | < 5.00 | < 4.00 | < 4.00 | < 4.00 | < 4.00 | < 4.00 | 4.00 |
| Nc1nc(=O)n([C@@H]2O[C@@H](CO)[C@H](O)C2(F)F)cc1I | < 5.00 | < 4.00 | < 4.00 | < 4.00 | < 4.00 | < 4.00 | < 4.00 |
| Cc1cn([C@H]2C[C@H](N=[N+]=[N-])[C@@H](CO)O2)c(=O)[nH]c1=O [ZIDOVUDINE] | < 5.00 | < 4.00 | < 4.00 | 8.40 | < 4.00 | 4.89 | 4.54 |
